# Measured values as given in PubChem BioAssay (NCI).
#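 Abbreviation: GI50, concentration required for 50% inhibition of growth. TGI is the concentration that stops growth completely.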
# Columns and labels:
# Assay in all cases: growth of human tumour cells (NCI), 384-well format
# SK-MEL-2 melanoma = system: SK-MEL-2 melanoma
# MDA-MB-468 breast = system: MDA-MB-468 breast
# HL-60(TB) leukemia = system: HL-60(TB) leukemia
# NCI-H460 NSCLC = system: NCI-H460 NSCLC
# SF-295 CNS = system: SF-295 CNS
# IGROV1 ovarian = system: IGROV1 ovarian
# SK-OV-3 ovarian = system: SK-OV-3 ovarian
# OVCAR-3 ovarian = system: OVCAR-3 ovarian
# HOP-62 NSCLC = system: HOP-62 NSCLC
# SF-539 CNS = system: SF-539 CNS
# MALME-3M melanoma = system: MALME-3M melanoma
# CCRF-CEM leukemia = system: CCRF-CEM leukemia
# SK-MEL-5 melanoma = system: SK-MEL-5 melanoma
# TK-10 renal = system: TK-10 renal
# A549 NSCLC = system: A549 NSCLC
# SF-268 CNS = system: SF-268 CNS
# SR leukemia = system: SR leukemia
# CAKI-1 renal = system: CAKI-1 renal
# NCI-H522 lung = system: NCI-H522 lung
# HS 578T breast = system: HS 578T breast
# 786-0 renal = system: 786-0 renal
# MDA-MB-231 breast = system: MDA-MB-231 breast
# HOP-92 NSCLC = system: HOP-92 NSCLC
# M14 melanoma = system: M14 melanoma
# U251 glioblastoma = system: U251 glioblastoma
# DU-145 prostate = system: DU-145 prostate
# SK-MEL-28 melanoma = system: SK-MEL-28 melanoma
# MCF7 breast = system: MCF7 breast
# SW-620 colon = system: SW-620 colon
# A498 renal = system: A498 renal
# OVCAR-4 ovarian = system: OVCAR-4 ovarian
# KM12 colon = system: KM12 colon
# OVCAR-8 ovarian = system: OVCAR-8 ovarian
# K-562 leukemia = system: K-562 leukemia
# UACC-62 melanoma = system: UACC-62 melanoma
# EKVX NSCLC = system: EKVX NSCLC
# SNB-19 CNS = system: SNB-19 CNS
# PC-3 prostate = system: PC-3 prostate
# SNB-75 CNS = system: SNB-75 CNS
# HCC-2998 colon = system: HCC-2998 colon
# NCI/ADR-RES ovarian = system: NCI/ADR-RES ovarian
# MOLT-4 leukemia = system: MOLT-4 leukemia
# HCT-15 colon = system: HCT-15 colon
# RPMI-8226 leukemia = system: RPMI-8226 leukemia
# MDA-MB-435 melanoma = system: MDA-MB-435 melanoma
# RXF 393 renal = system: RXF 393 renal
# NCI-H226 lung = system: NCI-H226 lung
structure (smiles),measurement,setting,value
CNCc1ccccc1-c1csc([C@@H](C)Nc2nc(C)nc3cc(OC)c(OC)cc23)c1,GI50,SK-MEL-2 melanoma,1320 nM
same,TGI,SK-MEL-2 melanoma,2590 nM
same,GI50,MDA-MB-468 breast,287 nM
same,TGI,MDA-MB-468 breast,1560 nM
same,GI50,HL-60(TB) leukemia,1080 nM
same,TGI,HL-60(TB) leukemia,2270 nM
same,GI50,NCI-H460 NSCLC,1580 nM
same,TGI,NCI-H460 NSCLC,2.93 µM
same,GI50,SF-295 CNS,1700 nM
same,TGI,SF-295 CNS,3.07 µM
same,GI50,IGROV1 ovarian,1.31 µM
same,TGI,IGROV1 ovarian,2.59 µM
same,GI50,SK-OV-3 ovarian,1310 nM
same,TGI,SK-OV-3 ovarian,2580 nM
same,GI50,OVCAR-3 ovarian,1260 nM
same,TGI,OVCAR-3 ovarian,2520 nM
same,GI50,HOP-62 NSCLC,1480 nM
same,TGI,HOP-62 NSCLC,2800 nM
same,GI50,SF-539 CNS,1140 nM
same,TGI,SF-539 CNS,2360 nM
same,GI50,MALME-3M melanoma,1560 nM
same,TGI,MALME-3M melanoma,2900 nM
same,GI50,CCRF-CEM leukemia,1070 nM
same,TGI,CCRF-CEM leukemia,2260 nM
same,GI50,SK-MEL-5 melanoma,1150 nM
same,TGI,SK-MEL-5 melanoma,2370 nM
same,GI50,TK-10 renal,1.45 µM
same,TGI,TK-10 renal,2.77 µM
same,GI50,A549 NSCLC,1670 nM
same,TGI,A549 NSCLC,3.04 µM
same,GI50,SF-268 CNS,1610 nM
same,TGI,SF-268 CNS,2960 nM
same,GI50,SR leukemia,676 nM
same,TGI,SR leukemia,1940 nM
same,GI50,CAKI-1 renal,1050 nM
same,TGI,CAKI-1 renal,2.22 µM
same,GI50,NCI-H522 lung,1160 nM
same,TGI,NCI-H522 lung,2390 nM
same,GI50,HS 578T breast,302 nM
same,TGI,HS 578T breast,2110 nM
same,GI50,786-0 renal,1240 nM
same,TGI,786-0 renal,2500 nM
same,GI50,MDA-MB-231 breast,1720 nM
same,TGI,MDA-MB-231 breast,3100 nM
same,GI50,HOP-92 NSCLC,171 nM
same,TGI,HOP-92 NSCLC,1290 nM
same,GI50,M14 melanoma,1560 nM
same,TGI,M14 melanoma,2900 nM
same,GI50,U251 glioblastoma,1440 nM
same,TGI,U251 glioblastoma,2750 nM
same,GI50,DU-145 prostate,1710 nM
same,TGI,DU-145 prostate,3.2 µM
same,GI50,SK-MEL-28 melanoma,1510 nM
same,TGI,SK-MEL-28 melanoma,2840 nM
same,GI50,MCF7 breast,1290 nM
same,TGI,MCF7 breast,2570 nM
same,GI50,SW-620 colon,1360 nM
same,TGI,SW-620 colon,2640 nM
same,GI50,A498 renal,1030 nM
same,TGI,A498 renal,2190 nM
same,GI50,OVCAR-4 ovarian,1140 nM
same,TGI,OVCAR-4 ovarian,2380 nM
same,GI50,KM12 colon,914 nM
same,TGI,KM12 colon,2140 nM
same,GI50,OVCAR-8 ovarian,1500 nM
same,TGI,OVCAR-8 ovarian,2830 nM
same,GI50,K-562 leukemia,64 nM
same,TGI,K-562 leukemia,723 nM
same,GI50,UACC-62 melanoma,1700 nM
same,TGI,UACC-62 melanoma,3080 nM
same,GI50,EKVX NSCLC,1100 nM
same,TGI,EKVX NSCLC,2320 nM
same,GI50,SNB-19 CNS,1450 nM
same,TGI,SNB-19 CNS,2770 nM
same,GI50,PC-3 prostate,1530 nM
same,TGI,PC-3 prostate,2970 nM
same,GI50,SNB-75 CNS,1300 nM
same,TGI,SNB-75 CNS,2.57 µM
same,GI50,HCC-2998 colon,240 nM
same,TGI,HCC-2998 colon,1070 nM
same,GI50,NCI/ADR-RES ovarian,1620 nM
same,TGI,NCI/ADR-RES ovarian,2990 nM
same,GI50,MOLT-4 leukemia,1180 nM
same,TGI,MOLT-4 leukemia,2400 nM
same,GI50,HCT-15 colon,1500 nM
same,TGI,HCT-15 colon,2.83 µM
same,GI50,RPMI-8226 leukemia,643 nM
same,TGI,RPMI-8226 leukemia,1.98 µM
same,GI50,MDA-MB-435 melanoma,1570 nM
same,TGI,MDA-MB-435 melanoma,2.91 µM
same,GI50,RXF 393 renal,414 nM
same,TGI,RXF 393 renal,1670 nM
same,GI50,NCI-H226 lung,1250 nM
same,TGI,NCI-H226 lung,2580 nM
Cc1cc(Nc2ccc(NC(=O)c3ccc(Nc4ccnc5ccccc45)cc3)cc2)nc(N)n1,GI50,SK-MEL-2 melanoma,199 nM
same,TGI,SK-MEL-2 melanoma,386 nM
same,GI50,MDA-MB-468 breast,196 nM
same,TGI,MDA-MB-468 breast,339 nM
same,GI50,HL-60(TB) leukemia,603 nM
same,TGI,HL-60(TB) leukemia,1060 nM
same,GI50,NCI-H460 NSCLC,1670 nM
same,TGI,NCI-H460 NSCLC,3.15 µM
same,GI50,SF-295 CNS,3160 nM
same,TGI,SF-295 CNS,8.99 µM
same,GI50,IGROV1 ovarian,4.97 µM
same,TGI,IGROV1 ovarian,9.37 µM
same,GI50,SK-OV-3 ovarian,917 nM
same,TGI,SK-OV-3 ovarian,2250 nM
same,GI50,OVCAR-3 ovarian,189 nM
same,TGI,OVCAR-3 ovarian,333 nM
same,GI50,HOP-62 NSCLC,695 nM
same,TGI,HOP-62 NSCLC,1840 nM
same,GI50,SF-539 CNS,552 nM
same,TGI,SF-539 CNS,1020 nM
same,GI50,MALME-3M melanoma,1000 nM
same,TGI,MALME-3M melanoma,2230 nM
same,GI50,CCRF-CEM leukemia,191 nM
same,TGI,CCRF-CEM leukemia,335 nM
same,GI50,SK-MEL-5 melanoma,1340 nM
same,TGI,SK-MEL-5 melanoma,2630 nM
same,GI50,TK-10 renal,5.63 µM
same,TGI,TK-10 renal,17.5 µM
same,GI50,A549 NSCLC,1870 nM
same,TGI,A549 NSCLC,3.4 µM
same,GI50,SF-268 CNS,732 nM
same,TGI,SF-268 CNS,1820 nM
same,GI50,SR leukemia,172 nM
same,TGI,SR leukemia,313 nM
same,GI50,CAKI-1 renal,2960 nM
same,TGI,CAKI-1 renal,8.45 µM
same,GI50,NCI-H522 lung,217 nM
same,TGI,NCI-H522 lung,410 nM
same,GI50,HS 578T breast,1050 nM
same,TGI,HS 578T breast,2240 nM
same,GI50,786-0 renal,872 nM
same,TGI,786-0 renal,2240 nM
same,GI50,MDA-MB-231 breast,275 nM
same,TGI,MDA-MB-231 breast,737 nM
same,GI50,HOP-92 NSCLC,539 nM
same,TGI,HOP-92 NSCLC,1520 nM
same,GI50,M14 melanoma,1550 nM
same,TGI,M14 melanoma,2920 nM
same,GI50,U251 glioblastoma,195 nM
same,TGI,U251 glioblastoma,340 nM
same,GI50,DU-145 prostate,1600 nM
same,TGI,DU-145 prostate,2.98 µM
same,GI50,SK-MEL-28 melanoma,987 nM
same,TGI,SK-MEL-28 melanoma,2270 nM
same,GI50,MCF7 breast,254 nM
same,TGI,MCF7 breast,618 nM
same,GI50,SW-620 colon,250 nM
same,TGI,SW-620 colon,580 nM
same,GI50,A498 renal,1500 nM
same,TGI,A498 renal,2890 nM
same,GI50,OVCAR-4 ovarian,521 nM
same,TGI,OVCAR-4 ovarian,957 nM
same,GI50,KM12 colon,193 nM
same,TGI,KM12 colon,355 nM
same,GI50,OVCAR-8 ovarian,831 nM
same,TGI,OVCAR-8 ovarian,2100 nM
same,GI50,K-562 leukemia,324 nM
same,TGI,K-562 leukemia,921 nM
same,GI50,UACC-62 melanoma,719 nM
same,TGI,UACC-62 melanoma,1940 nM
same,GI50,EKVX NSCLC,1230 nM
same,TGI,EKVX NSCLC,2670 nM
same,GI50,SNB-19 CNS,1240 nM
same,TGI,SNB-19 CNS,2510 nM
same,GI50,PC-3 prostate,894 nM
same,TGI,PC-3 prostate,2250 nM
same,GI50,SNB-75 CNS,2400 nM
same,TGI,SNB-75 CNS,4.7 µM
same,GI50,HCC-2998 colon,541 nM
same,TGI,HCC-2998 colon,1000 nM
same,GI50,NCI/ADR-RES ovarian,> 100000 nM
same,TGI,NCI/ADR-RES ovarian,> 100000 nM
same,GI50,MOLT-4 leukemia,203 nM
same,TGI,MOLT-4 leukemia,347 nM
same,GI50,HCT-15 colon,3870 nM
same,TGI,HCT-15 colon,13.8 µM
same,GI50,RPMI-8226 leukemia,3110 nM
same,TGI,RPMI-8226 leukemia,7.87 µM
same,GI50,MDA-MB-435 melanoma,1850 nM
same,TGI,MDA-MB-435 melanoma,3.26 µM
same,GI50,RXF 393 renal,750 nM
same,TGI,RXF 393 renal,1840 nM
same,GI50,NCI-H226 lung,625 nM
same,TGI,NCI-H226 lung,1210 nM
